In ChEMBL document CHEMBL1158334, “Two new chymotrypsin inhibitors isolated from the Cyanobacterium Microcystis aeruginosa NIES-88” (J Nat Prod, 2005):

Assays:
[1] = Inhibition of chymotrypsin
[2] = Inhibition of trypsin

SMILES	IC50 [1] [µM]	IC50 [2] [µM]
CCCCCCCC(=O)N[C@@H](CCC(=O)O)C(=O)N[C@@H]1C(=O)N[C@@H](CCCCN)C(=O)N[C@H]2CC[C@@H](O)N(C2=O)[C@@H](CC(C)C)C(=O)N(C)[C@@H](Cc2ccc(O)cc2)C(=O)N[C@@H](C(C)C)C(=O)O[C@@H]1C [MICROPEPTIN A]	> 100	0.07
CC[C@H](C)[C@@H]1NC(=O)[C@H](Cc2ccc(O)cc2)N(C)C(=O)[C@H]([C@H](C)O)N2C(=O)[C@H](CC[C@H]2O)NC(=O)[C@H](CC(C)C)NC(=O)[C@@H](NC(=O)[C@H](CCC(N)=O)NC(=O)[C@H](CCc2ccc(O)cc2)NC(=O)[C@H](O)CO)[C@@H](C)OC1=O [OSCILLAPEPTIN G]	4	> 100
CC[C@H](C)[C@@H]1NC(=O)[C@H](Cc2ccccc2)N(C)C(=O)[C@H](C(C)C)N2C(=O)[C@H](CC[C@H]2O)NC(=O)[C@H](Cc2ccc(O)cc2)NC(=O)[C@@H](NC(=O)CC[C@H](NC(=O)[C@H](Cc2ccc(O)cc2)NC(C)=O)C(=O)O)[C@@H](C)OC1=O [MICROPEPTIN 88 Y]	1.3	> 100
CC(C)CC(NC(=O)[C@H](O)COS(=O)(=O)O)C(=O)N[C@@H]1C(=O)N[C@@H](CCCNC(=N)N)C(=O)N[C@H]2CC[C@@H](O)N(C2=O)[C@@H](CC(C)C)C(=O)N(C)[C@@H](Cc2ccc(O)cc2)C(=O)N[C@@H](C(C)C)C(=O)O[C@@H]1C (single isomer, unassigned)	> 100	0.001
CC[C@H](C)[C@@H]1NC(=O)[C@H](Cc2ccc(O)cc2)N(C)C(=O)[C@H](Cc2ccccc2)N2C(=O)[C@H](CC[C@H]2O)NC(=O)[C@H](Cc2ccccc2)NC(=O)[C@@H](NC(=O)[C@@H](O)COP(=O)(O)O)[C@@H](C)OC1=O [MICROPEPTIN T 20]	2500	> 100
CCCCCC(=O)N[C@@H](CC(=O)O)C(=O)N[C@@H]1C(=O)N[C@@H](CCCNC(=N)N)C(=O)N[C@H]2CC[C@@H](O)N(C2=O)[C@@H]([C@@H](C)CC)C(=O)N(C)[C@@H](CC(=O)c2ccccc2N)C(=O)N[C@@H](C(C)C)C(=O)O[C@@H]1C [MICROPEPTIN SD999]	> 100	4
CC[C@H](C)[C@H](NC(=O)[C@H](O)Cc1ccc(O)cc1)C(=O)N[C@@H](CCO)C(=O)N[C@@H]1C(=O)N[C@@H](CCO)C(=O)N[C@H]2CC[C@@H](O)N(C2=O)[C@@H](Cc2ccccc2)C(=O)N(C)[C@@H](Cc2ccc(O)cc2)C(=O)N[C@@H](C(C)C)C(=O)O[C@@H]1C [NOSTOCYCLIN]	> 100	> 100
CCCCCC(=O)N[C@@H](CC(=O)O)C(=O)N[C@@H]1C(=O)N[C@@H](Cc2ccc(O)cc2)C(=O)N[C@H]2CC[C@@H](O)N(C2=O)[C@@H]([C@@H](C)CC)C(=O)N(C)[C@@H](Cc2c[nH]c3ccccc23)C(=O)N[C@@H](C(C)C)C(=O)O[C@@H]1C [MICROPEPTIN SD1002]	3.2	> 100

The remaining lines, values ahead:

IC50 [1] [µM]	IC50 [2] [µM]	SMILES
3.4	> 100	CCCC(=O)N[C@@H](Cc1ccc(O)cc1)C(=O)N[C@@H](CCC(=O)N[C@@H]1C(=O)N[C@@H](Cc2ccc(O)cc2)C(=O)N[C@H]2CC[C@@H](O)N(C2=O)[C@@H](C(C)C)C(=O)N(C)[C@@H](Cc2ccccc2)C(=O)N[C@@H]([C@@H](C)CC)C(=O)O[C@@H]1C)C(=O)OC [MICROPEPTIN 88 F]
5	> 100	CCCC(=O)N[C@@H](Cc1ccc(O)cc1)C(=O)N[C@@H](CCC(=O)N[C@@H]1C(=O)N[C@@H](CC(C)C)C(=O)N[C@H]2CC[C@@H](O)N(C2=O)[C@@H](C(C)C)C(=O)N(C)[C@@H](Cc2ccccc2)C(=O)N[C@@H]([C@@H](C)CC)C(=O)O[C@@H]1C)C(=O)O [MICROPEPTIN 88 E]
9	> 100	CCCC(=O)N[C@@H](Cc1ccc(O)cc1)C(=O)N[C@@H](CCC(=O)N[C@@H]1C(=O)N[C@@H](C[C@H]2C=C[C@H](O)CC2)C(=O)N[C@H]2CC[C@@H](O)N(C2=O)[C@@H](C(C)C)C(=O)N(C)[C@@H](Cc2ccccc2)C(=O)N[C@@H]([C@@H](C)CC)C(=O)O[C@@H]1C)C(=O)O [MICROPEPTIN 88 D]
> 100	0.02	CC(C)[C@@H]1NC(=O)[C@H](Cc2ccc(O)cc2)N(C)C(=O)[C@H](Cc2ccccc2)N2C(=O)[C@H](CC[C@H]2O)NC(=O)[C@H](CCCNC(=N)N)NC(=O)[C@@H](NC(=O)[C@@H](O)COS(=O)(=O)O)[C@@H](C)OC1=O [MICROPEPTIN 90]
> 100	8.5	CCCCCC(=O)N[C@@H](CC(=O)O)C(=O)N[C@@H]1C(=O)N[C@@H](CCCCN)C(=O)N[C@H]2CC[C@@H](O)N(C2=O)[C@@H]([C@@H](C)CC)C(=O)N(C)[C@@H](Cc2ccc(O)cc2)C(=O)N[C@@H](C(C)C)C(=O)O[C@@H]1C [MICROPEPTIN SD944]
2.5	> 100	CCCCCC(=O)N[C@@H](CC(=O)O)C(=O)N[C@@H]1C(=O)N[C@@H](Cc2ccc(O)cc2)C(=O)N[C@H]2CC[C@@H](O)N(C2=O)[C@@H]([C@@H](C)CC)C(=O)N(C)[C@@H](Cc2ccc(O)cc2)C(=O)N[C@@H](C(C)C)C(=O)O[C@@H]1C [MICROPEPTIN SD979]
> 100	> 100	CCCC(=O)N[C@@H](Cc1ccc(O)cc1)C(=O)N[C@@H](CCC(=O)N[C@@H]1C(=O)N[C@@H](CCC(=O)O)C(=O)N[C@H]2CC[C@@H](O)N(C2=O)[C@@H](C(C)C)C(=O)N(C)[C@@H](Cc2ccccc2)C(=O)N[C@@H]([C@@H](C)CC)C(=O)O[C@@H]1C)C(=O)O [MICROPEPTIN 88 B]
1.9	> 100	CC[C@H](C)[C@@H]1NC(=O)[C@H](Cc2ccc(OC)cc2)N(C)C(=O)[C@H]([C@@H](C)CC)N2C(=O)[C@H](CC[C@H]2O)NC(=O)[C@H](CCc2ccc(O)cc2)NC(=O)[C@@H](NC(=O)[C@H](CCc2ccc(O)cc2)NC(=O)[C@@H](COS(=O)(=O)O)OC)[C@@H](C)OC1=O [OSCILLAPEPTIN]
4.6	> 100	CCCC(=O)N[C@@H](Cc1ccc(O)cc1)C(=O)N[C@@H](CCC(=O)N[C@@H]1C(=O)N[C@@H](Cc2ccc(O)cc2)C(=O)N[C@H]2CC[C@@H](O)N(C2=O)[C@@H](C(C)C)C(=O)N(C)[C@@H](Cc2ccccc2)C(=O)N[C@@H]([C@@H](C)CC)C(=O)O[C@@H]1C)C(=O)O [MICROPEPTIN 88 C]
